# Data from PubChem BioAssay AID270 (DTP/NCI, 2004).
# Results filed as inconclusive are left out. Where a SMILES comes first, the peptide text is derived from it. [ ]: non-standard residue; d: D form. The star is where a group is joined. ξ: configuration not given here. ξAsp(βξ-Me) = CC(C(=O)O)C(N)C(=O)O; X4 = CC(N*)C1NC(=O)C2CCCCN2C1=O; ξAbu(3ξ-NH2) = CC(N)C(N)C(=O)O; X3 = CCC(C)CCC/C=C/CC(=O)*
# Tested on: BDF1 mice, s.c. Lewis lung carcinoma, T/C %
# Assay: NCI In Vivo Anticancer Drug Screen. Data for tumor model Lewis Lung Carcinoma (subcutaneous) in B6D2F1 (BDF1) mice
# Outline: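 The value reflects a ratio in which the treated cohort's survival time or tumour size is compared against mice receiving only vehicle.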
# [1] = endpoint: mean tumor weight, dose: 25.0 mg/kg/injection, schedule: Q01DX011 (ip), vehicle: saline, higher = larger tumour
structure (smiles),measurement,setting,value
O=C1N(Cl)C(=O)C(c2ccc(Cl)cc2)(c2ccc(Cl)cc2)N1Cl,T/C,"endpoint: mean tumor weight, dose: 17.0 mg/kg/injection, schedule: Q01DX011 (ip), vehicle: other, higher = larger tumour",84 % of control
same,T/C,"endpoint: mean tumor weight, dose: 33.0 mg/kg/injection, schedule: Q01DX011 (ip), vehicle: other, higher = larger tumour",68 % of control
same,T/C,"endpoint: mean tumor weight, dose: 50.0 mg/kg/injection, schedule: Q01DX011 (ip), vehicle: other, higher = larger tumour",23 % of control
same,T/C,"endpoint: mean tumor weight, dose: 75.0 mg/kg/injection, schedule: Q01DX011 (ip), vehicle: other, higher = larger tumour",25 % of control
same,T/C,"endpoint: mean tumor weight, dose: 112.0 mg/kg/injection, schedule: Q01DX011 (ip), vehicle: other, higher = larger tumour",36 % of control
same,T/C,"endpoint: mean tumor weight, dose: 224.0 mg/kg/injection, schedule: Q01DX011 (ip), vehicle: other, higher = larger tumour",52 % of control
same,T/C,"endpoint: median survival time, dose: 12.5 mg/kg/injection, schedule: Q01DX009 (ip), vehicle: Klucel (hydroxypropylcellulose) (HPC), higher = longer survival",95 % of control
same,T/C,"endpoint: median survival time, dose: 25.0 mg/kg/injection, schedule: Q01DX009 (ip), vehicle: Klucel (hydroxypropylcellulose) (HPC), higher = longer survival",87 % of control
same,T/C,"endpoint: median survival time, dose: 50.0 mg/kg/injection, schedule: Q01DX009 (ip), vehicle: Klucel (hydroxypropylcellulose) (HPC), higher = longer survival",101 % of control
CCC(C)CCC/C=C/CC(=O)NC(CC(=O)O)C(=O)NC(C(=O)NC(CC(=O)O)C(=O)NCC(=O)NC(CC(=O)O)C(=O)NCC(=O)NC(C(=O)NC(C(=O)N1CCCC1C(=O)NC(C)C1NC(=O)C2CCCCN2C1=O)C(C)C)C(C)N)C(C)C(=O)O (stereo not drawn) (X3-D[ξAsp(βξ-Me)]DGDG[ξAbu(3ξ-NH2)]VP-X4; configuration not given here),T/C,"endpoint: median survival time, dose: 100.0 mg/kg/injection, schedule: Q01DX009 (ip), vehicle: saline + alcohol, higher = longer survival",124 % of control
same,T/C,"endpoint: median survival time, dose: 200.0 mg/kg/injection, schedule: Q01DX009 (ip), vehicle: saline + alcohol, higher = longer survival",99 % of control
COc1cc(C=Nc2ccc(-n3ccnc3C)cc2)ccc1N(CCCl)CCCl,T/C,"endpoint: median survival time, dose: 2.5 mg/kg/injection, schedule: Q01DX009 (ip), vehicle: Klucel (hydroxypropylcellulose) (HPC), higher = longer survival",116 % of control
same,T/C,"endpoint: median survival time, dose: 5.0 mg/kg/injection, schedule: Q01DX009 (ip), vehicle: Klucel (hydroxypropylcellulose) (HPC), higher = longer survival",103 % of control
same,T/C,"endpoint: median survival time, dose: 10.0 mg/kg/injection, schedule: Q01DX009 (ip), vehicle: Klucel (hydroxypropylcellulose) (HPC), higher = longer survival",113 % of control
CCOC(=O)NC1=C(N2CC2)C(=O)C(NC(=O)OCC)=C(N2CC2)C1=O,T/C,"endpoint: median survival time, dose: 0.5 mg/kg/injection, schedule: Q01DX009 (ip), vehicle: saline with Tween-80, higher = longer survival",110 % of control
same,T/C,"endpoint: median survival time, dose: 0.67 mg/kg/injection, schedule: Q01DX005 (ip), vehicle: saline with Tween-80, higher = longer survival",92 % of control
same,T/C,"endpoint: median survival time, dose: 2.5 mg/kg/injection, schedule: Q01DX005 (ip), vehicle: saline with Tween-80, higher = longer survival",91 % of control
same,T/C,"endpoint: median survival time, dose: 3.0 mg/kg/injection, schedule: Q01DX009 (ip), vehicle: saline with Tween-80, higher = longer survival",100 % of control
same,T/C,"endpoint: median survival time, dose: 3.0 mg/kg/injection, schedule: Q04DX003 (ip), vehicle: saline with Tween-80, higher = longer survival",86 % of control
same,T/C,"endpoint: median survival time, dose: 4.0 mg/kg/injection, schedule: Q04DX003 (ip), vehicle: saline with Tween-80, higher = longer survival",93 % of control
same,T/C,"endpoint: median survival time, dose: 4.5 mg/kg/injection, schedule: Q01DX009 (ip), vehicle: saline with Tween-80, higher = longer survival",96 % of control
same,T/C,"endpoint: median survival time, dose: 17.0 mg/kg/injection, schedule: Q01DX001 (ip), vehicle: saline with Tween-80, higher = longer survival",100 % of control
same,T/C,"endpoint: median survival time, dose: 26.0 mg/kg/injection, schedule: Q01DX001 (ip), vehicle: saline with Tween-80, higher = longer survival",86 % of control
N#Cc1ccc(S(N)(=O)=O)cc1,T/C,"endpoint: mean tumor weight, dose: 6.2 mg/kg/injection, schedule: Q01DX011 (ip), vehicle: carboxymethylcellulose (CMC), higher = larger tumour",52 % of control
same,T/C,"endpoint: mean tumor weight, dose: 12.5 mg/kg/injection, schedule: Q01DX011 (ip), vehicle: carboxymethylcellulose (CMC), higher = larger tumour",66 % of control
O=C1C2CCCCC2C(=O)N1c1nccs1 (centres undefined),T/C,"endpoint: mean tumor weight, dose: 50.0 mg/kg/injection, schedule: Q01DX011 (ip), vehicle: carboxymethylcellulose (CMC), higher = larger tumour",58 % of control
same,T/C,"endpoint: mean tumor weight, dose: 100.0 mg/kg/injection, schedule: Q01DX011 (ip), vehicle: carboxymethylcellulose (CMC), higher = larger tumour",71 % of control
same,T/C,"endpoint: mean tumor weight, dose: 200.0 mg/kg/injection, schedule: Q01DX011 (ip), vehicle: carboxymethylcellulose (CMC), higher = larger tumour",84 % of control
CC1(C)N=C(N)N=C(N)N1c1ccc(F)c(C(F)(F)F)c1,T/C,"endpoint: median survival time, dose: 12.5 mg/kg/injection, schedule: Q01DX009 (ip), vehicle: saline, higher = longer survival",121 % of control
same,T/C,"endpoint: median survival time, dose: 25.0 mg/kg/injection, schedule: Q01DX009 (ip), vehicle: saline, higher = longer survival",111 % of control
O=c1c(O)c(-c2ccc(O)c(O)c2)oc2cc(O)cc(O)c12,T/C,"endpoint: mean tumor weight, dose: 12.5 mg/kg/injection, schedule: Q01DX011 (ip), vehicle: saline, higher = larger tumour",86 % of control
same,T/C,[1],71 % of control
same,T/C,"endpoint: mean tumor weight, dose: 50.0 mg/kg/injection, schedule: Q01DX011 (ip), vehicle: saline, higher = larger tumour",61 % of control
same,T/C,"endpoint: mean tumor weight, dose: 100.0 mg/kg/injection, schedule: Q01DX011 (ip), vehicle: saline, higher = larger tumour",100 % of control
CN(C)CCCN1c2ccccc2Sc2ccc(C(F)(F)F)cc21,T/C,"endpoint: mean tumor weight, dose: 12.0 mg/kg/injection, schedule: Q01DX011 (ip), vehicle: saline, higher = larger tumour",81 % of control
same,T/C,[1],44 % of control
O=C(O)Cc1ccc(C2CCCCC2)cc1,T/C,"endpoint: mean tumor weight, dose: 150.0 mg/kg/injection, schedule: Q01DX011 (ip), vehicle: carboxymethylcellulose (CMC), higher = larger tumour",67 % of control
same,T/C,"endpoint: mean tumor weight, dose: 225.0 mg/kg/injection, schedule: Q01DX011 (ip), vehicle: carboxymethylcellulose (CMC), higher = larger tumour",88 % of control
same,T/C,"endpoint: mean tumor weight, dose: 335.0 mg/kg/injection, schedule: Q01DX011 (ip), vehicle: carboxymethylcellulose (CMC), higher = larger tumour",100 % of control
